According to ChEMBL document CHEMBL3885881, “DrugMatrix”:

Species: Rattus norvegicus
Experiment: DrugMatrix - Regimen: Daily Repeat
Type: toxicity, organism-based, Sprague-Dawley
Set-up: regimen Daily Repeat, gender Male, age 6-8 weeks
Conditions: in vivo, po, route oral GAVAGE, vehicle .5 % CMC; for ABSOLUTE BASOPHIL / ABSOLUTE EOSINOPHIL / ABSOLUTE LYMPHOCYTE / ABSOLUTE MONOCYTE / ABSOLUTE SEGMENTED NEUTROPHIL / BASOPHIL / EOSINOPHIL / ERYTHROCYTE COUNT / HEMATOCRIT / HEMOGLOBIN / LEUKOCYTE COUNT / LYMPHOCYTE / MEAN CORPUSCULAR HEMOGLOBIN / MEAN CORPUSCULAR HEMOGLOBIN CONCENTRATION / MEAN CORPUSCULAR VOLUME / MONOCYTE / NEUTROPHIL / NUCLEATED RED BLOOD CELLS / PLATELET COUNT: tissue Blood; for ALANINE AMINOTRANSFERASE / ALBUMIN / ALKALINE PHOSPHATASE / ASPARTATE AMINOTRANSFERASE / BLOOD UREA NITROGEN / CARBON DIOXIDE / CHLORIDE / CHOLESTEROL / CREATINE PHOSPHOKINASE / CREATININE / GLUCOSE / LACTATE DEHYDROGENASE / LIPASE / POTASSIUM / SODIUM / TOTAL BILIRUBIN / TOTAL PROTEIN: tissue Plasma
[1] = 0 mg/kg, 72 h, dose level Control, time 3 day
[2] = 0 mg/kg, 120 h, dose level Control, time 5 day
[3] = 150 mg/kg, 72 h, dose level Low, time 3 day

`C[C@@H]1CC[C@H]2[C@@H](C)C(=O)O[C@@H]3O[C@@]4(C)CC[C@@H]1[C@]32OO4` [ARTEMISININ] was tested. Which “ABSOLUTE BASOPHIL” value [1] did it give?
Its value is 0 CELLS/uL.

What about the “ABSOLUTE EOSINOPHIL” value [1] of the same molecule?
Its value is 171.33 CELLS/uL.

What about the “ABSOLUTE LYMPHOCYTE” value [1] of the same molecule?
Its value is 13776.5 CELLS/uL.

What about the “ABSOLUTE MONOCYTE” value [1] of the same molecule?
The value was 180.83 CELLS/uL.

And the “ABSOLUTE SEGMENTED NEUTROPHIL” value [1]?
Its value is 1121.33 CELLS/uL.

What about the BASOPHIL [1] of the same molecule?
The BASOPHIL was 0%.

And the EOSINOPHIL [1]?
Its EOSINOPHIL is 1%.

What about the “ERYTHROCYTE COUNT” value [1] of the same molecule?
The value was 5.56 x10E6/uL.

And the HEMATOCRIT [1]?
Its HEMATOCRIT is 34.75%.

And the HEMOGLOBIN [1]?
The HEMOGLOBIN was 13.68 G/DL.

What about the “LEUKOCYTE COUNT” value [1] of the same molecule?
The value was 15.25 x10E3/uL.

What about the LYMPHOCYTE [1] of the same molecule?
The LYMPHOCYTE was 90.17%.

And the “MEAN CORPUSCULAR HEMOGLOBIN” value [1]?
The value was 24.6 pg.

What about the “MEAN CORPUSCULAR HEMOGLOBIN CONCENTRATION” value [1] of the same molecule?
Its value is 39.4 G/DL.

And the “MEAN CORPUSCULAR VOLUME” value [1]?
The value was 62.48 fL.

What about the MONOCYTE [1] of the same molecule?
Its MONOCYTE is 1.17%.

What about the NEUTROPHIL [1] of the same molecule?
The NEUTROPHIL was 7.67%.

And the “NUCLEATED RED BLOOD CELLS” value [1]?
The value was 0 /100WBC.

And the “PLATELET COUNT” value [1]?
The value was 1342 x10E3/uL.

What about the “ALANINE AMINOTRANSFERASE” value [1] of the same molecule?
The value was 49.67 u/L.

What about the ALBUMIN [1] of the same molecule?
The ALBUMIN was 4.15 G/DL.

And the “ALKALINE PHOSPHATASE” value [1]?
The value was 346.83 u/L.

And the “ASPARTATE AMINOTRANSFERASE” value [1]?
Its value is 108.17 u/L.

What about the “BLOOD UREA NITROGEN” value [1] of the same molecule?
The value was 17.33 mg/dL.

And the “CARBON DIOXIDE” value [1]?
The value was 25 mmol/L.

And the CHLORIDE [1]?
The CHLORIDE was 100.83 MEQ/L.

What about the CHOLESTEROL [1] of the same molecule?
Its CHOLESTEROL is 66.83 mg/dL.

And the “CREATINE PHOSPHOKINASE” value [1]?
Its value is 788 u/L.

And the CREATININE [1]?
Its CREATININE is 0.18 mg/dL.

What about the GLUCOSE [1] of the same molecule?
Its GLUCOSE is 151.67 mg/dL.

And the “LACTATE DEHYDROGENASE” value [1]?
The value was 982.5 u/L.

And the LIPASE [1]?
The LIPASE was 10.33 u/L.

What about the POTASSIUM [1] of the same molecule?
The POTASSIUM was 6.37 MEQ/L.

What about the SODIUM [1] of the same molecule?
Its SODIUM is 141.02 MEQ/L.

What about the “TOTAL BILIRUBIN” value [1] of the same molecule?
The value was 0.18 mg/dL.

And the “TOTAL PROTEIN” value [1]?
Its value is 5.9 G/DL.

And the “ABSOLUTE BASOPHIL” value [2]?
Its value is 0 CELLS/uL.

And the “ABSOLUTE EOSINOPHIL” value [2]?
The value was 69 CELLS/uL.

What about the “ABSOLUTE LYMPHOCYTE” value [2] of the same molecule?
Its value is 13632.83 CELLS/uL.

And the “ABSOLUTE MONOCYTE” value [2]?
Its value is 139.83 CELLS/uL.

What about the “ABSOLUTE SEGMENTED NEUTROPHIL” value [2] of the same molecule?
The value was 1225 CELLS/uL.

And the BASOPHIL [2]?
Its BASOPHIL is 0%.

And the EOSINOPHIL [2]?
The EOSINOPHIL was 0.33%.

What about the “ERYTHROCYTE COUNT” value [2] of the same molecule?
Its value is 5.52 x10E6/uL.

What about the HEMATOCRIT [2] of the same molecule?
The HEMATOCRIT was 33.98%.

What about the HEMOGLOBIN [2] of the same molecule?
The HEMOGLOBIN was 13.22 G/DL.

What about the “LEUKOCYTE COUNT” value [2] of the same molecule?
The value was 15.07 x10E3/uL.

And the LYMPHOCYTE [2]?
The LYMPHOCYTE was 90.83%.

And the “MEAN CORPUSCULAR HEMOGLOBIN” value [2]?
Its value is 23.95 pg.

What about the “MEAN CORPUSCULAR HEMOGLOBIN CONCENTRATION” value [2] of the same molecule?
Its value is 38.9 G/DL.

What about the “MEAN CORPUSCULAR VOLUME” value [2] of the same molecule?
Its value is 61.53 fL.

And the MONOCYTE [2]?
Its MONOCYTE is 0.83%.

And the NEUTROPHIL [2]?
Its NEUTROPHIL is 8%.

What about the “NUCLEATED RED BLOOD CELLS” value [2] of the same molecule?
The value was 0 /100WBC.

And the “PLATELET COUNT” value [2]?
The value was 1196 x10E3/uL.

And the “ALANINE AMINOTRANSFERASE” value [2]?
Its value is 49.17 u/L.

And the ALBUMIN [2]?
Its ALBUMIN is 4.2 G/DL.

What about the “ALKALINE PHOSPHATASE” value [2] of the same molecule?
The value was 352.33 u/L.

What about the “ASPARTATE AMINOTRANSFERASE” value [2] of the same molecule?
The value was 89.67 u/L.

What about the “BLOOD UREA NITROGEN” value [2] of the same molecule?
The value was 18 mg/dL.

And the “CARBON DIOXIDE” value [2]?
Its value is 27.67 mmol/L.

What about the CHLORIDE [2] of the same molecule?
Its CHLORIDE is 101 MEQ/L.

And the CHOLESTEROL [2]?
Its CHOLESTEROL is 72.83 mg/dL.

And the “CREATINE PHOSPHOKINASE” value [2]?
The value was 417.5 u/L.

And the CREATININE [2]?
Its CREATININE is 0.18 mg/dL.

And the GLUCOSE [2]?
Its GLUCOSE is 150.5 mg/dL.

What about the “LACTATE DEHYDROGENASE” value [2] of the same molecule?
Its value is 517.33 u/L.

And the LIPASE [2]?
The LIPASE was 9 u/L.

What about the POTASSIUM [2] of the same molecule?
The POTASSIUM was 6.57 MEQ/L.

And the SODIUM [2]?
The SODIUM was 143.62 MEQ/L.

And the “TOTAL BILIRUBIN” value [2]?
The value was 0.2 mg/dL.

What about the “TOTAL PROTEIN” value [2] of the same molecule?
The value was 6.08 G/DL.

And the “ABSOLUTE BASOPHIL” value [3]?
Its value is 0 CELLS/uL.

And the “ABSOLUTE EOSINOPHIL” value [3]?
The value was 206 CELLS/uL.

And the “ABSOLUTE LYMPHOCYTE” value [3]?
The value was 10521.33 CELLS/uL.

What about the “ABSOLUTE MONOCYTE” value [3] of the same molecule?
The value was 315 CELLS/uL.

What about the “ABSOLUTE SEGMENTED NEUTROPHIL” value [3] of the same molecule?
Its value is 957.67 CELLS/uL.

What about the BASOPHIL [3] of the same molecule?
The BASOPHIL was 0%.

And the EOSINOPHIL [3]?
The EOSINOPHIL was 1.67%.

And the “ERYTHROCYTE COUNT” value [3]?
The value was 6.1 x10E6/uL.

And the HEMATOCRIT [3]?
Its HEMATOCRIT is 36.63%.

What about the HEMOGLOBIN [3] of the same molecule?
The HEMOGLOBIN was 13.77 G/DL.

And the “LEUKOCYTE COUNT” value [3]?
Its value is 12 x10E3/uL.

And the LYMPHOCYTE [3]?
The LYMPHOCYTE was 87.67%.

And the “MEAN CORPUSCULAR HEMOGLOBIN” value [3]?
The value was 22.63 pg.

And the “MEAN CORPUSCULAR HEMOGLOBIN CONCENTRATION” value [3]?
Its value is 37.6 G/DL.

And the “MEAN CORPUSCULAR VOLUME” value [3]?
The value was 60.1 fL.

What about the MONOCYTE [3] of the same molecule?
The MONOCYTE was 2.67%.

And the NEUTROPHIL [3]?
Its NEUTROPHIL is 8%.

What about the “NUCLEATED RED BLOOD CELLS” value [3] of the same molecule?
Its value is 0 /100WBC.

What about the “PLATELET COUNT” value [3] of the same molecule?
The value was 1362.67 x10E3/uL.

And the “ALANINE AMINOTRANSFERASE” value [3]?
The value was 38 u/L.

And the ALBUMIN [3]?
The ALBUMIN was 4.53 G/DL.

And the “ALKALINE PHOSPHATASE” value [3]?
The value was 347.67 u/L.

What about the “ASPARTATE AMINOTRANSFERASE” value [3] of the same molecule?
The value was 86.67 u/L.

What about the “BLOOD UREA NITROGEN” value [3] of the same molecule?
The value was 22 mg/dL.

What about the “CARBON DIOXIDE” value [3] of the same molecule?
The value was 25.33 mmol/L.

And the CHLORIDE [3]?
The CHLORIDE was 104.33 MEQ/L.

What about the CHOLESTEROL [3] of the same molecule?
The CHOLESTEROL was 87.67 mg/dL.

And the “CREATINE PHOSPHOKINASE” value [3]?
The value was 336.33 u/L.

And the CREATININE [3]?
Its CREATININE is 0.24 mg/dL.

What about the GLUCOSE [3] of the same molecule?
The GLUCOSE was 145.67 mg/dL.

And the “LACTATE DEHYDROGENASE” value [3]?
Its value is 459.33 u/L.

What about the LIPASE [3] of the same molecule?
The LIPASE was 11 u/L.

And the POTASSIUM [3]?
Its POTASSIUM is 6.03 MEQ/L.

What about the SODIUM [3] of the same molecule?
The SODIUM was 146.83 MEQ/L.

What about the “TOTAL BILIRUBIN” value [3] of the same molecule?
The value was 0.13 mg/dL.
